The test system of data set [1] is Male Wistar rats. The data set is described as follows: Haematology (WBC, RBC) after 7-day intragastral treatment of rats. Type of data set: in vivo, rat. How it is done: (§1) Male Wistar rats having an average body weight of 322.5 g were kept under conventional conditions at a room temperature of 21±1° C., a relative atmospheric humidity of about 60% and a 12 hour day/night cycle. Prior to the start of the experiment, they where subjected to an acclimatization to those keeping conditions for 12 days.
(§2) Feeding was performed with the pelletized standard diet Altromin C 1000, Misch. Nr. 100 (Altrogge). The animals were given tap water ad libidum as drinking water.
(§3) 1. Coated tablet core granules, micronized with putamen ovi; 1 coated tablet core aar® os with 640 mg contains 440 mg of putamen ovi, micronized, corresponding to 160 mg of calcium; Dosage form: Putamen ovi, coated tablet core granules, 146 mg (≡100 mg of putamen ovi, micronized≈36.5 mg of Ca) is suspended in 2 ml of dist. water (POS), 0.5 ml (POS)≡9.125 mg of Ca (PO)/[…]
(§4) The suspension were freshly prepared immediately before the administration and homogeneously administered. The control animals were given physiological saline in an equivalent volume.
erythrocytes (RBC), leucocytes (WBC), platelets (PLT), hemoglobin (HGB), hematocrit (HCT)
By means of the fully automated hematology analyzer Sysmex K-1000, the following were determined: WBC, RBC, PLT as well as HGB and HCT, further MCV, MCH and MCHC. The main unit of this device essentially consists of a hydraulic (HS) and an electronic (ES) system. The HS is used for sucking, pipetting, diluting, mixing and lysing. The ES analyzes and converts the signals from the HS and submits the results to the printer. With the aid of microprocessors, the ES also monitors the test runs, the testing station, and performs a quality control.
The hematocrit value corresponds to the percent volume fraction of erythrocytes in blood. In addition to the number of erythrocytes and the hematocrit value, the level of hemoglobin, the chromoprotein contained in the erythrocytes, is an important criterion for the diagnostics of anemias. Classification is performed by the erythrocyte indices. Erythrocyte size and hemoglobin content are characterized by the erythrocyte volume (MCV=mean corpuscular volume), the hemoglobin content of the erythrocytes (MCH=mean corpuscular hemoglobin), and the mean corpuscular hemoglobin concentration (MCHC). The erythrocyte distribution width (RDW=red cell distribution width) is a measure of anisocytosis.
(§5) Measurements were performed with the following test substances (corresponding values for the control=100%): […]

Data set [2] concerns healthy females in post-menopause. As to conditions: two-year study, 361 healthy females in post-menopause; cited from earlier work.
Data set [3] concerns Male Wistar rats. As to the kind of experiment: Leucocyte/lymphocyte differentiation by flow cytometry after 7-day treatment of rats. Type of data set: in vivo, rat. As to the method: as §1, §2, §3, §4
The leucocyte differentiation was performed using the flow cytometer FACScan following appropriate lysing of the whole blood sample (scattered light measurement).
The lymphocyte differentiation was performed after specific monoclonal incubation by means of fluorescence-activated cell sorting (fluorescence measurement).
On the 7th day of treatment, there were analyzed quantitatively:
For determining the phenotypes of the lymphocytes, they were incubated with the following antibodies of Pharmingen, San Diego (USA), to which a fluorochrome was coupled:
5 μl each of the antibodies is incubated with 50 μl of Na-EDTA-blood at room temperature in the dark for 20 min. The suspension is agitated with 2 ml of Lyses Reagenz of Becton-Dickinson and incubated for 10 min as described. This followed by centrifuging at 400×g for 6 min, and the supernatant is poured off. The pellet is washed with 3 ml of Cell Wash and centrifuged at 400×g for 6 min. The pellet is taken up in 100 μl of Cell Wash. The suspension is analyzed by means of the flow cytometer.
as §5
On the technique in general: A flow cytometer gives signals particle by particle.

The test system of data set [4] is Male Wistar rats. As to the kind of experiment: Clinical-chemical serum parameters after 7-day treatment of rats. The format is in vivo, rat. As to the method: as §1, §2, §3, §4
Parameters such as enzymes, glucose, lipids, electrolytes, creatinin, urea and protein are detected selectively, method-oriented, photometrically or ion-selectively using the analyzer Cobas Mira. The supplemental report furnishes analysis-specific data of quality control and statistics.
The following clinical-chemical metabolic measurement values were analyzed in a combined method-specific manner: Bilirubin, creatinin, urea, glutamate oxalacetate transaminase (GOT), glutamate pyruvate transaminase (GPT), gamma-glutamyl transferase (GGT), glucose, cholesterol, triglycerides, calcium, sodium, potassium, chloride and total protein.
as §5

Data set [5] has as its system Male Wistar rats. The data set is described as follows: Histological examination of organs after 7-day treatment of rats. As to conditions: 7 days. As to the method: as §1, §2, §3, §4
Setting [6] is: change vs control (=100%), rats, 7 days intragastral, serum.
Where [7] appears, read: change vs control (=100%), rats, intragastral once daily for 7 days, peripheral blood.
Where [8] appears, read: change vs control (=100%), rats, 7th day of treatment, peripheral blood.

The values that follow come from patent publication US6344217B1, “Putamen OVI” (priority 1994, dated 2002).

Where “and” joins values, the source holds several entries; their conditions need not be identical. Equal values may be shown once. Entries after “also recorded” stand apart in the source; their conditions may differ.

With `O=C([O-])[O-].[Ca+2]` [CC, Calcium carbonate], the “RBC (number of erythrocytes)” value in the data set on Male Wistar rats [1] (rat, in vivo) is “not increased”. Also, the “inhibitory influence on bone mass losses” value in data set [2] is recorded as “only a slightly pronounced inhibitory influence”. In the data set on Male Wistar rats [3] (rat, in vivo), the B lymphocytes result was “+7.6%”, the T lymphocytes entry is “unch”, the chemoprotective effect result is recorded as “neither showed positive effects in clinically healthy rats nor chemoprotective effects” and the helper lymphocytes is listed as −4.3%. Moreover, in the data set on Male Wistar rats [3] (rat, in vivo), the lymphocytes entry was “unch”, the “polymorphs (polymorphonuclear granulocytes)” value is reported as “unch” and the supp. lymphocytes result is “+12.4%”. Moreover, the Ca entry in the data set on Male Wistar rats [4] (setting [6]) was “unch”. Also, in the data set on Male Wistar rats [4] (rat, in vivo), the “AP (alkaline phosphatase)” value is “+5.5%”, the GLDH result was “+6.7%”, the GOT is given as −7.1% and the GPT result is “unch”. For the same compound, in the data set with Male Wistar rats [4] (rat, in vivo), the “SP (acid phosphatase)” value was “unch”, the bilirubin is given as −17.3%, the cholesterol entry was “unch” and the creatinin is given as −19.7%. Besides, in the data set with Male Wistar rats [4] (rat, in vivo), the glucose result is “+6.7%”, the triglycerides is recorded as −7.8% and the urea was −13.9%.

`O=P1(N(CCCl)CCCl)NCCCO1` (stereo not drawn) [CyS, Cyclophosphamide]: the “WBC (number of leucocytes)” value with Male Wistar rats [1] (setting [7]) is −51.3%. In the data set with Male Wistar rats [3] (setting [8]), the B lymphocytes is listed as −79.9%; the T lymphocytes is −51% and −51.9%; the helper lymphocytes is reported as −45.9%; the lymphocytes was −55.0%. For the same compound, in the data set on Male Wistar rats [3] (setting [8]), the “polymorphs (polymorphonuclear granulocytes)” value is −28.1% and the supp. lymphocytes is listed as −30.9%. Moreover, in the data set with Male Wistar rats [5], the “erythrocytes in thorn-apple form (acanthocytes) in bone marrow sinuses” value was “encountered”. For the same compound, in the data set with Male Wistar rats [4] (setting [6]), the “AP (alkaline phosphatase)” value was −14.7%, the Ca is −23.2%, the GLDH is −21.3% and the GOT is −24.6%. Besides, in the data set with Male Wistar rats [4] (setting [6]), the GPT was −30.8%, the “SP (acid phosphatase)” value is on record as −9.1%, the bilirubin result is on record as “+58.6%” and the cholesterol is recorded as −25%. Besides, in the data set on Male Wistar rats [4] (setting [6]), the creatinin is given as −28.3%, the glucose entry is on record as “+5.2%”, the triglycerides result is given as “+10.1%” and the urea entry is recorded as “unch”.

Take `NS(=O)(=O)c1cc(C(=O)O)c(NCc2ccco2)cc1Cl` [FUR, Furosemide]: in the data set with Male Wistar rats [1] (setting [7]), the “RBC (number of erythrocytes)” value is on record as “unchanged” and the “WBC (number of leucocytes)” value is reported as “+61.0%”. Besides, in the data set on Male Wistar rats [3] (setting [8]), the T lymphocytes entry is “+46.2%”, the helper lymphocytes result is “+41.5%”, the lymphocytes entry is reported as “+60.5%” and the supp. lymphocytes result is “unch”. For the same compound, in the data set on Male Wistar rats [4] (setting [6]), the “AP (alkaline phosphatase)” value was −13.4%, the Ca is reported as −28.9%, the GLDH was −31.3% and the GOT entry was “unch”. For the same compound, in the data set on Male Wistar rats [4] (setting [6]), the GPT is −24.4%, the bilirubin entry is listed as “+20.7%”, the cholesterol is −24.9% and the creatinin was −49.7%. In addition, in the data set with Male Wistar rats [4] (setting [6]), the glucose entry is reported as “unch”, the triglycerides was −29.6% and the urea is on record as −7.3%.

`[F-].[Na+]` [NF, Sodium fluoride]: the “WBC (number of leucocytes)” value with Male Wistar rats [1] (setting [7]) is reported as “+13.8%”. In the data set with Male Wistar rats [3] (setting [8]), the T lymphocytes entry is “did not induce an effect; also recorded: unch”, the helper lymphocytes entry is “did not induce an effect; also recorded: unch”, the lymphocytes entry is “unch” and the supp. lymphocytes entry is given as “did not induce an effect; also recorded: unch”. In the data set with Male Wistar rats [4] (setting [6]), the “AP (alkaline phosphatase)” value is recorded as “unch”, the Ca result is “unch”, the GLDH is on record as −17.3% and the GOT is −9.8%. For the same compound, in the data set with Male Wistar rats [4] (setting [6]), the GPT is on record as −9.7%, the “SP (acid phosphatase)” value is given as −7.5%, the bilirubin result is “+13.8%” and the cholesterol was −8.7%. In the data set on Male Wistar rats [4] (setting [6]), the creatinin is −20.7%, the glucose entry is recorded as “+15.7%”, the triglycerides is given as −4.2% and the urea was −13.2%.
